Results on 14 compounds are retold here after ChEMBL document CHEMBL1201862, “PubChem BioAssay data set” (2004).

Several values for one entry are separate records, joined by “and”; a condition that tells them apart may be missing. Equal values may be shown once.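 96-well plates; 48 h exposure; 5 concentrations. Endpoints by linear interpolation between flanking doses. Not reached: highest tested concentration assigned. Abbreviation: GI50, concentration required for 50% inhibition of growth.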 Activity calls are given as the source filed them. Rule as the data show it: active = GI50 up to about 1.1 µM and inactive = higher.

Test systems include SF-539; M14; SK-MEL-5; SK-MEL-28; COLO 205; K562; SNB-75; NCI-H522; HCT-15; OVCAR-8; SW-620; HT-29; HOP-92; SR; KM12; A498.
Experiment in all cases: growth of human tumour cells (NCI), 48 h

Take `O=C(O)C1Cc2[nH]cnc2CN1` (stereo unspecified): the GI50 in the assay with SF-539, in the assay with M14, in the assay on SK-MEL-5, with SK-MEL-28, in the assay on COLO 205 and with K562 was > 100 µM (inactive) throughout. The GI50 in the assay on SNB-75 is > 100 µM (inactive); with NCI-H522, > 100 µM (inactive); in the assay on HCT-15, more than 100 µM; with OVCAR-8, > 100 µM (inactive); with SW-620, > 100 µM (inactive); with HT-29, > 100 µM (inactive). The GI50 in the assay with HOP-92, with SR, in the assay on KM12 and in the assay on A498 was > 100 µM (inactive) in each case.
Turning to `C=CCc1cc(OC)c2c(c1)C(O)CC(c1ccccc1)O2` (stereo unspecified), the GI50 with SF-539 was > 100 µM (inactive); with M14 it was > 100 µM (inactive); in the assay with SK-MEL-5, > 100 µM (inactive); in the assay on SK-MEL-28, > 100 µM (inactive); with COLO 205, > 100 µM (inactive); in the assay with K562 it was 23.6 µM (inactive). For the same compound, the GI50 in the assay on SNB-75 was > 100 µM (inactive); in the assay with NCI-H522 it was > 100 µM (inactive); with HCT-15, 96.6 µM; in the assay on OVCAR-8, > 100 µM (inactive); with SW-620 it was > 100 µM (inactive); with HT-29, 60.1 µM (inactive). For the same compound, the GI50 with HOP-92, with SR and in the assay on KM12 was > 100 µM (inactive) throughout.
As to `Sc1nnc(C(c2ccccc2)c2ccccc2)[nH]1`, the GI50 in the assay on SF-539 was > 100 µM (inactive); with SK-MEL-5, > 100 µM (inactive); in the assay on SK-MEL-28, > 100 µM (inactive); in the assay on COLO 205, > 100 µM (inactive); in the assay on K562, > 100 µM (inactive); in the assay with NCI-H522, 53.2 µM (inactive). For the same compound, the GI50 with HCT-15 was more than 100 µM; with OVCAR-8, > 100 µM (inactive); in the assay on SW-620, > 100 µM (inactive); with HT-29, > 100 µM (inactive); in the assay with KM12, > 100 µM (inactive); with A498, > 100 µM (inactive).
As for `CCC(C)NC1=C(NC(C)=O)C(=O)c2ccccc2C1=O` (stereo unspecified), the GI50 was > 75 µM (inactive) in the assay on SF-539; > 75 µM (inactive) in the assay on M14; > 75 µM (inactive) in the assay with SK-MEL-5; > 75 µM (inactive) in the assay on SK-MEL-28; > 75 µM (inactive) in the assay on COLO 205; 43.9 µM (inactive) in the assay with K562. Further, the GI50 in the assay with SNB-75 was > 75 µM (inactive); in the assay with HCT-15 it was 46.1 µM; in the assay on OVCAR-8, > 75 µM (inactive); in the assay on SW-620, 22.5 µM (inactive); in the assay with HT-29 it was 54.1 µM (inactive); in the assay on HOP-92, > 75 µM (inactive). In addition, the GI50 in the assay with KM12 and in the assay with A498 was > 75 µM (inactive) each time.
Consider `CCOC(=O)C(Cc1ccc([N+](=O)[O-])cc1)NC(=O)CC1c2ccccc2-c2ccccc21` (stereo unspecified), for which the GI50 in the assay with SF-539 is 27.9 µM (inactive); with M14 it was 22.9 µM (inactive); in the assay on SK-MEL-28 it was 90.8 µM (inactive); with COLO 205, > 100 µM (inactive); in the assay on K562 it was > 100 µM (inactive); in the assay with SNB-75 it was 26.1 µM (inactive). For the same compound, the GI50 was > 100 µM (inactive) in the assay with NCI-H522; more than 100 µM with HCT-15; 63.8 µM (inactive) in the assay on OVCAR-8; > 100 µM (inactive) with SW-620; > 100 µM (inactive) with HT-29; 23.7 µM (inactive) with HOP-92. The GI50 in the assay with SR, with KM12 and in the assay on A498 was > 100 µM (inactive) throughout.
Turning to `COc1ccc(N2C(=O)C3c4[nH]c5ccccc5c4C4CCCCCCC4C3C2=O)cc1` (stereo unspecified), the GI50 in the assay on SF-539 was 7.74 µM (inactive); with M14, 11.9 µM (inactive); in the assay on SK-MEL-5 it was 23.8 µM (inactive); in the assay on SK-MEL-28 it was 18.8 µM (inactive); in the assay with COLO 205, 13.2 µM (inactive); with K562, 10.1 µM (inactive). The GI50 was 11.9 µM (inactive) in the assay on SNB-75; 13.9 µM (inactive) in the assay with NCI-H522; 6.71 µM in the assay with HCT-15; 3.8 µM (inactive) in the assay with OVCAR-8; 7.14 µM (inactive) in the assay on SW-620; 23 µM (inactive) with HT-29. Moreover, the GI50 in the assay with HOP-92 was 13.8 µM (inactive); in the assay with SR, 6.52 µM (inactive); in the assay with KM12 it was > 51.2 µM (inactive); in the assay on A498, 25.5 µM (inactive).
`C/C(=N\OCC(O)CNC(C)C)c1ccc2c(c1)NC(=O)CS2` (stereo unspecified): the GI50 in the assay on SF-539, in the assay with M14, with SK-MEL-5, in the assay on SK-MEL-28, in the assay on COLO 205 and in the assay on K562 was > 100 µM (inactive) throughout. Also, the GI50 is 50.6 µM (inactive) in the assay on SNB-75; > 100 µM (inactive) with NCI-H522; more than 100 µM with HCT-15; > 100 µM (inactive) in the assay with OVCAR-8; > 100 µM (inactive) with SW-620; > 100 µM (inactive) in the assay with HT-29. Besides, the results for the GI50 in the assay on HOP-92, with KM12 and in the assay with A498 were 42.1 µM (inactive), > 100 µM (inactive) and > 100 µM (inactive), respectively.
For the compound `Cc1cn(Cc2ccccc2CCO)c(=S)[nH]c1=O`, the GI50 in the assay with SF-539, with M14, in the assay on SK-MEL-5, with SK-MEL-28, in the assay with COLO 205 and in the assay on K562 was > 100 µM (inactive) throughout. For the same compound, the GI50 is > 100 µM (inactive) with SNB-75; > 100 µM (inactive) with NCI-H522; more than 100 µM in the assay on HCT-15; > 100 µM (inactive) in the assay on OVCAR-8; > 100 µM (inactive) in the assay with SW-620; > 100 µM (inactive) in the assay with HT-29. The GI50 in the assay on HOP-92, with KM12 and with A498 was > 100 µM (inactive) in each case.
Regarding `Cc1ccc(/C=N/NS(=O)(=O)c2ccccc2)c(C)c1`, the GI50 with SF-539, in the assay on M14, in the assay with SK-MEL-5, in the assay on SK-MEL-28, with COLO 205 and with K562 was > 100 µM (inactive) each time. Further, the GI50 was > 100 µM (inactive) in the assay with SNB-75; more than 100 µM with HCT-15; > 100 µM (inactive) in the assay with OVCAR-8; > 100 µM (inactive) with SW-620; > 100 µM (inactive) with HT-29; > 100 µM (inactive) in the assay on HOP-92. Also, the GI50 with SR, in the assay on KM12 and with A498 was > 100 µM (inactive) in each case.
As to `CC1CN(c2ccc(Cl)cc2)CC(C)(C)OC(=O)O1` (stereo unspecified), the GI50 in the assay on SF-539, in the assay on M14, in the assay with SK-MEL-5, in the assay on SK-MEL-28, in the assay with COLO 205 and in the assay on K562 was > 100 µM (inactive) throughout. In addition, the GI50 is > 100 µM (inactive) in the assay on SNB-75; > 100 µM (inactive) in the assay on NCI-H522; more than 100 µM with HCT-15; > 100 µM (inactive) in the assay on OVCAR-8; > 100 µM (inactive) in the assay with SW-620; > 100 µM (inactive) with HT-29. For the same compound, the GI50 in the assay with HOP-92, in the assay with SR and in the assay with KM12 was > 100 µM (inactive) in each case.
Consider `COC(=O)C1CC/C(=N\c2cccc(C(F)(F)F)c2)N1` (stereo unspecified), for which the GI50 in the assay on M14, in the assay on SK-MEL-28, in the assay with COLO 205, in the assay with K562, with SNB-75 and in the assay with NCI-H522 was > 100 µM (inactive) each time. Besides, the GI50 is more than 100 µM with HCT-15; > 100 µM (inactive) in the assay with OVCAR-8; > 100 µM (inactive) in the assay with SW-620; > 100 µM (inactive) with HT-29; > 100 µM (inactive) with HOP-92; > 100 µM (inactive) in the assay with KM12. In addition, the GI50 in the assay with A498 is > 100 µM (inactive).
On to `O=C(O)CCSC(=O)Nc1cccc(F)c1`, for which the GI50 with SF-539 is > 100 µM (inactive); in the assay with M14 it was 18.3 µM (inactive); in the assay with SK-MEL-28, > 100 µM (inactive); in the assay with COLO 205 it was > 100 µM (inactive); in the assay on K562, > 100 µM (inactive); with HCT-15 it was more than 100 µM. Besides, the GI50 in the assay with OVCAR-8, in the assay on SW-620, with HT-29, with SR, in the assay with KM12 and in the assay on A498 was > 100 µM (inactive) throughout.
`CC1=C2C(=O)O[C@@H](c3ccoc3)[C@]2(C)CCC1` [FRAXINELLONE]: the GI50 with SF-539, in the assay with M14, in the assay on SK-MEL-5, in the assay with SK-MEL-28, in the assay on COLO 205 and in the assay on K562 was > 100 µM (inactive) throughout. Besides, the GI50 with SNB-75 is 77.1 µM (inactive); with NCI-H522 it was > 100 µM (inactive); with HCT-15, more than 100 µM; in the assay on OVCAR-8 it was > 100 µM (inactive); in the assay with SW-620, > 100 µM (inactive); with HT-29 it was > 100 µM (inactive). The GI50 is 23.1 µM (inactive) with HOP-92, > 100 µM (inactive) in the assay on SR and > 100 µM (inactive) in the assay with KM12.
With `O=C1c2ccccc2-c2c3c(cc4ccnc1c24)OCO3` [LIRIODENINE], the GI50 in the assay with M14 was 7.53 µM (inactive) and 6.71 µM (inactive); in the assay on SK-MEL-5 it was 2.84 µM (inactive); in the assay with SK-MEL-28, 5.58 µM (inactive) and 5.27 µM (inactive); with COLO 205 it was 4.79 µM (inactive) and 4.24 µM (inactive); with K562, 3.42 µM (inactive) and 4.29 µM (inactive); in the assay with SNB-75, 4.18 µM (inactive) and 6 µM (inactive). The GI50 in the assay on HCT-15 was 4.9 µM and 4.42 µM; with OVCAR-8, 4.04 µM (inactive) and 5.14 µM (inactive); with SW-620, 4.92 µM (inactive) and 3.82 µM (inactive); in the assay with HT-29, 4.95 µM (inactive) and 4.06 µM (inactive); in the assay on HOP-92, 8.69 µM (inactive) and 5.61 µM (inactive); in the assay on KM12 it was 6.44 µM (inactive) and 6.5 µM (inactive). In the assay with A498, the GI50 was 3.48 µM (inactive).
